Test results published in patent US20080057136A1, “Disinfecting Composition and Methods of Making and Using Same” (priority 2003, published 2008).
Converted amounts (≈) assume the structure as drawn. “And” between values parts separate entries of the source, which are not always exact repeats. Equal entries are not always repeated. One block for each compound: values may come before it.

Legend:
[1] = system: Trichophyton rubrum (ATCC 28188); assay: Time-Kill test (Example 9); type: cell-based; conditions: Study 506-103
T. rubrum = assay: MIC and MBC determination by doubling dilutions (Study 509-102); type: cell-based, Trichophyton rubrum
Text: Table 2 below indicates the stock dilutions for each test agent, and a breakdown of the resulting concentrations for each of the doubling dilutions performed is summarized in Table 3.
From the stock dilutions, an initial 1:10 dilution was made (representing tube 1), followed by doubling dilutions (tubes 2-12), as detailed in Table 3.

C. albicans ATCC 10231 [2] = assay: NCCLS broth microdilution MIC and MFC (Example 10); type: cell-based, Candida albicans; conditions: for MIC: amphotericin B complete inhibition; for fungicidal activity: MFC within 1 doubling dilution of the MIC
T. rubrum ATCC 28188 [3] = assay: NCCLS broth microdilution MIC and MFC (Example 10); type: cell-based, Trichophyton rubrum; conditions: Example 10; for MIC: 80% reduction in growth, amphotericin B complete inhibition; for MFC: 99.9% inhibition of growth; for fungicidal activity: MFC within 1 doubling dilution of the MIC
C. albicans ATCC 10231 [4] = assay: NCCLS broth microdilution MIC and MFC (Example 11); type: cell-based, Candida albicans; conditions: for MIC: amphotericin B complete inhibition, terbinafine 50%/90%; for fungicidal activity: MFC within 1 doubling dilution of the MIC
T. rubrum ATCC 28188 [5] = assay: NCCLS broth microdilution MIC and MFC (Example 11); type: cell-based, Trichophyton rubrum; conditions: Example 11; for MIC: 80% reduction in growth, amphotericin B complete inhibition; for fungicidal activity: MFC within 1 doubling dilution of the MIC
[6] = system: Candida albicans (ATCC 10231); assay: Time-Kill test (Example 9); type: cell-based; conditions: Study 506-103
[7] = Study 509-102, Inoculum Counts: 3.6 × 10^8
[8] = Candida albicans, ATCC10231, 80% reduction in growth, read-out: MIC
[9] = Trichophyton rubrum, ATCC28188, read-out: MIC
[10] = Trichophyton rubrum, ATCC28188, read-out: MFC

MIC (ppm) (T. rubrum; [7]): >0.25 ppm
MIC Against T. rubrum (T. rubrum; Table 23, row head prints μg/mL): >0.25 µg/mL
MIC (C. albicans ATCC 10231 [2]; 80% reduction in growth): 0.12 µg/mL (≈ 0.13 µM)
MIC (T. rubrum ATCC 28188 [3]): 0.25 µg/mL (≈ 0.271 µM)
MIC (C. albicans ATCC 10231 [4]; 80% reduction in growth): 0.25 µg/mL (≈ 0.271 µM)
MIC (T. rubrum ATCC 28188 [5]): 0.25 µg/mL (≈ 0.271 µM)
SMILES: C[C@@H]1[C@H](O)[C@@H](C)/C=C/C=C/C=C/C=C/C=C/C=C/C=C/[C@H](O[C@@H]2O[C@H](C)[C@@H](O)[C@H](N)[C@@H]2O)C[C@@H]2O[C@](O)(C[C@@H](O)C[C@@H](O)[C@H](O)CC[C@@H](O)C[C@@H](O)CC(=O)O[C@H]1C)C[C@H](O)[C@H]2C(=O)O [Amphotericin B]
Log10 Reduction ([1]; 30 sec. contact): 1.0 Log10
CFUs recovered per milliliter of T. rubrum culture ([1]; 30 sec. contact, initial 1.0 × 10^6 CFU/ml, Amphotericin B 2.5 mg/L): 1.0 × 10^5 CFU/ml and 1.1 × 10^5 CFU/ml
CFUs recovered per milliliter of T. rubrum culture ([1]; 60 sec. contact): 6.9 × 10^4 CFU/ml and 8.7 × 10^4 CFU/ml
Log10 Reduction ([1]; 60 sec. contact): 1.2 Log10 and 1.1 Log10
Log10 Reduction ([1]; 10 min. contact): 1.0 Log10
MBC (ppm) (T. rubrum; [7]): >0.25 ppm
MFC (C. albicans ATCC 10231 [2]; 99.9% inhibition of growth): 0.12 µg/mL (≈ 0.13 µM)
fungicidal activity (C. albicans ATCC 10231 [2]): Fungal activity
MFC (T. rubrum ATCC 28188 [3]): 0.5 µg/mL (≈ 0.541 µM)
fungicidal activity (T. rubrum ATCC 28188 [3]): Fungicidal activity was observed
MFC (C. albicans ATCC 10231 [4]): 0.5 µg/mL (≈ 0.541 µM)
fungicidal activity (C. albicans ATCC 10231 [4]): Fungicidal activity
MFC (T. rubrum ATCC 28188 [5]): 0.5 µg/mL (≈ 0.541 µM)
fungicidal activity (T. rubrum ATCC 28188 [5]): Fungicidal activity was observed

MIC (C. albicans ATCC 10231 [2]; [8]): 0.5 µg/mL (≈ 1.63 µM)
MIC (T. rubrum ATCC 28188 [3]; [9]): 2 µg/mL (≈ 6.53 µM)
MIC (C. albicans ATCC 10231 [4]; [8]): 0.5 µg/mL (≈ 1.63 µM)
MIC (T. rubrum ATCC 28188 [5]; [9]): 2 µg/mL (≈ 6.53 µM)
SMILES: OC(Cn1cncn1)(Cn1cncn1)c1ccc(F)cc1F [Fluconazole]
Log10 Reduction ([6]; 30 sec. contact): <1.0 Log10
CFUs recovered per milliliter of C. albicans culture ([6]; 30 sec. contact, initial 3.0 × 10^7 CFU/ml, Fluconazole 2 mg/ml): 3.0 × 10^6 CFU/ml
CFUs recovered per milliliter of C. albicans culture ([6]; 60 sec. contact): 3.0 × 10^6 CFU/ml
Log10 Reduction ([6]; 60 sec. contact): <1.0 Log10
CFUs recovered per milliliter of C. albicans culture ([6]; 5 min. contact): 3.0 × 10^6 CFU/ml
Log10 Reduction ([6]; 5 min. contact): <1.0 Log10
MFC (C. albicans ATCC 10231 [2]; Candida albicans, ATCC10231, 99.9% inhibition of growth, read-out: MFC): 2 µg/mL (≈ 6.53 µM)
fungicidal activity (C. albicans ATCC 10231 [2]): not considered fungicidal
fungicidal activity (T. rubrum ATCC 28188 [3]): did not demonstrate fungicidal activity
MFC (T. rubrum ATCC 28188 [3]; [10]): 8 µg/mL (≈ 26.1 µM)
MFC (C. albicans ATCC 10231 [4]; Candida albicans, ATCC10231, read-out: MFC): 1 µg/mL (≈ 3.27 µM)
fungicidal activity (C. albicans ATCC 10231 [4]): Fungicidal activity
fungicidal activity (T. rubrum ATCC 28188 [5]): did not demonstrate fungicidal activity
MFC (T. rubrum ATCC 28188 [5]; [10]): 64 µg/mL (≈ 209 µM)
